Measured values: publication PMC8144490, “Synthesis and Cytotoxic Activity of Novel Indole Derivatives and Their in silico Screening on Spike Glycoprotein of SARS-CoV-2” (Frontiers in Molecular Biosciences, 2021)
Read-outs that look alike come from different tables or passages of the source.

Tests used:
Assay type in all cases: cell-based
[1] = tested on: human embryonic kidney cells (HEK-293); assay: In vitro cytotoxicity on normal cells, MTT assay, HEK-293; details: HEK293, HEK-293 normal kidney cells
Experimental: (§1) The newly prepared compounds 1a–1j are examined for their cytotoxic activity according to the United States NCI protocol, which was a previously reported method ([Chadha and Silakari, 2017]). The 50% growth inhibition (GI50), tumor growth inhibition (TGI), and lethal concentration (LC50) values were determined. […] Doxorubicin was used as a standard drug. None of the tested derivatives had shown significant activity toward the cancer cell lines. The compounds were also evaluated for their possible cytotoxicity in human embryonic kidney cells (HEK-293), lung cells (MRC-5), and liver cells (LO2) by employing MTT assay. […] The results of cytotoxic screening of compounds (1a–1j) are shown in Table 2, and in vitro cytotoxicity of indole derivatives (1a–1j) on normal cells are shown in Table 3.
(§2) None of the tested derivatives had shown significant activity toward the cancer cell lines. The compounds were also evaluated for the possible cytotoxicity in human embryonic kidney cells (HEK-293), lung cells (MRC5), and liver cells (LO2) by employing MTT assay.

[2] = tested on: HeLa (Cervical) cancer cell line; assay: Cytotoxic activity (United States NCI protocol), HeLa; details: Homo sapiens; for IC (TGI): read-out: TGI
Experimental: (§3) The cytotoxicity experiment was performed according to the United States NCI protocol, previously reported method. A detailed experimental procedure was given in Supplementary Material ([Premnath et al., 2015]).
as §1

[3] = tested on: MCF-7 (Breast) cancer cell line; assay: Cytotoxic activity (United States NCI protocol), MCF-7; details: Homo sapiens; for GI50: 50% growth inhibition; for IC (TGI): tumor growth inhibition
Experimental: as §3, §1

lung cells (MRC5) = assay: In vitro cytotoxicity on normal cells, MTT assay, MRC5; details: Homo sapiens
Experimental: as §1, §2

[4] = tested on: HepG2 (Liver) cancer cell line; assay: Cytotoxic activity (United States NCI protocol), HepG2; details: Homo sapiens
Experimental: as §3, §1

liver cells (LO2) = assay: In vitro cytotoxicity on normal cells, MTT assay, LO2
Experimental: as §1, §2

[5] = 50% growth inhibition, read-out: GI50
[6] = lethal concentration, read-out: LC50 (the source's name)
[7] = MCF7, MCF-7, lethal concentration, read-out: LC50 (the source's name)
[8] = HepG2, lethal concentration, read-out: LC50
[9] = HepG2, tumor growth inhibition, read-out: TGI

SMILES	IC50 [1] [µM]	CC50 ([2]; read-out: LC50) [µM]	CC50 ([3]; MCF7, read-out: LC50) [µM]	IC50 (lung cells (MRC5)) [µM]	GI50 ([4]; HepG2) [µM]	LC50 (NCI lethal concentration 50%) ([4]; HepG2, read-out: LC50) [µM]	IC (TGI) ([4]; HepG2, read-out: TGI) [µM]	IC50 (liver cells (LO2)) [µM]	GI50 [2, 5] [µM]	CC50 [2, 6] [µM]	IC (TGI) ([2]; tumor growth inhibition) [µM]	GI50 ([3]; MCF7, MCF-7) [µM]	CC50 [3, 7] [µM]	IC (TGI) ([3]; MCF7, MCF-7) [µM]	LC50 (NCI lethal concentration 50%) [4, 8] [µM]	IC (TGI) [4, 9] [µM]	GI50 [2] [µM]	IC (TGI) [2] [µM]
C(=N\NC(c1ccccc1)n1ccc2ccccc21)/c1ccco1 (centres unmarked) [Compound 1a]	70.1	100	> 100	76.4	43.2	> 100	78.3	67.5										
O=[N+]([O-])c1cccc(C(N/N=C/c2ccco2)n2ccc3ccccc32)c1 (centres unmarked) [Compound 1b]	62.1			67.2	42.2			72.2	51	> 100	89.2	46.1	> 100	85.1	56.8	23.1		
Oc1ccc(C(NN=Cc2ccco2)n2ccc3ccccc32)cc1 (centres unmarked) [Compound 1c]	81.1	0.5	0.55	86.7	36.3	0.9	65.3	87.1									41.3	87.2
Clc1ccc(C(N/N=C/c2ccco2)n2ccc3ccccc32)cc1 (centres unmarked) [Compound 1d]	79.1			56.2	1			66.2	8.9	0.5	6.8	0.89	65	9.3	54	0.25		
COc1ccc(C(N/N=C/c2ccco2)n2ccc3ccccc32)cc1 (centres unmarked) [Compound 1e]	57.1			72.8	15.9			56	34.2	> 100	72.1	24.4	66.3	59.3	44.8	38.2		
Oc1ccccc1C(N/N=C/c1ccco1)n1ccc2ccccc21 (centres unmarked) [Compound 1f]	66.2			51.2	29.1			68.2	21.6	77.4	54.7	18.6	42.3	41.8	57.5	46.8		
COc1cc(C(N/N=C/c2ccco2)n2ccc3ccccc32)ccc1O (centres unmarked) [Compound 1g]	58.2			62.6	48			70.5	37.9	58.9	51.9	34	30.5	67.4	59.3	61.3		
CN(C)c1ccc(C(N/N=C/c2ccco2)n2ccc3ccccc32)cc1 (centres unmarked) [Compound 1h]	67			66.3	21.3			58.2	52.9	> 100	81.3	12.9	10.3	45.3	72.1	41		
C(=N\NCn1ccc2ccccc21)/c1ccco1 [Compound 1j]	52.7			75.1	40.3			70.1	2.3	48.3	58.3	56	78.6	49.3	66.8	45.3		
COc1cccc2c1C(=O)c1c(O)c3c(c(O)c1C2=O)C[C@@](O)(C(=O)CO)C[C@@H]3O[C@H]1C[C@H](N)[C@H](O)[C@H](C)O1 [Doxorubicin, reference compound]					0.01				0.05	0.88	0.41	0.02	0.74	0.21		0.13		
